Assay results taken from ChEMBL document CHEMBL6177960, “Rational design, optimization, and biological evaluation of novel pyrrolo-pyridone derivatives as potent and orally active Cbl-b inhibitors” (Eur J Med Chem, 2025).

Key:
[1] = target: E3 ubiquitin-protein ligase CBL-B (Homo sapiens, UniProt Q13191); test: Binding affinity to Cbl-b (unknown origin) assessed as inhibition constant incubated for 60 mins by TR-FRET assay
[2] = Apparent permeability across basolateral to apical side in human Caco-2 cells at 2 uM incubated for 2 hrs by LC-MS/MS analysis
[3] = Metabolic stability in mouse hepatocytes assessed as hepatic extraction ratio at 2 uM measured up to 120 mins by LC-MS/MS analysis
[4] = Plasma protein binding in Beagle dog at 5 uM incubated for 5 hrs by equilibrium dialysis based LC-MS analysis
[5] = Protein binding in cynomolgus monkey plasma assessed as unbound fraction at 5 uM incubated for 5 hrs by equilibrium dialysis based LC-MS analysis
[6] = Toxicity in female BALB/C mouse model implanted with mouse CT26 cells assessed as effect on body weight at 30 mg/kg, po administered via gavage once daily and measured after 14 days; details: in vivo, 336 h
in vitro [7] = details: rhesus monkey, hepatocytes
in vitro [8] = details: human, Caco-2
[9] = mouse, hepatocytes, 2 h, 2 µM
in vivo [10] = details: male, CD-1(ICR), mouse, iv, 1 mg/kg
Description: Clearance in male CD-1(ICR) mouse at 1 mg/kg, iv measured after 1440 mins by LC-MS/MS analysis

[11] = Apparent permeability across apical to basolateral side in human Caco-2 cells assessed as drug recovery at 2 uM incubated for 2 hrs by LC-MS/MS analysis
in vivo [12] = details: male, CD-1(ICR), mouse, iv, 1 mg/kg; remark: listed apart in the source
Description: MRTinfinity in male CD-1(ICR) mouse at 1 mg/kg, iv measured after 1440 mins by LC-MS/MS analysis

in vitro [13] = details: mouse, hepatocytes
[14] = Apparent permeability across apical to basolateral side in human Caco-2 cells at 2 uM incubated for 2 hrs by LC-MS/MS analysis
[15] = Plasma protein binding in Sprague-Dawley rat at 5 uM incubated for 5 hrs by equilibrium dialysis based LC-MS analysis
in vivo [16] = details: male, CD-1(ICR), mouse, po, 10 mg/kg
Description: MRTinfinity in male CD-1(ICR) mouse at 10 mg/kg, po measured after 1440 mins by LC-MS/MS analysis

in vivo [17] = details: male, CD-1(ICR), mouse, iv, 1 mg/kg; remark: listed apart in the source
Description: C0 in male CD-1(ICR) mouse at 1 mg/kg, iv measured after 1440 mins by LC-MS/MS analysis

[18] = Metabolic stability in monkey hepatocytes assessed as hepatic extraction ratio at 2 uM measured up to 120 mins by LC-MS/MS analysis; details: rhesus monkey
in vivo [19] = details: male, CD-1(ICR), mouse, po, 10 mg/kg; remark: listed apart in the source
in vivo [20] = details: male, CD-1(ICR), mouse, po, 10 mg/kg; remark: listed apart in the source
[21] = Protein binding in CD-1 mouse plasma assessed as unbound fraction at 5 uM incubated for 5 hrs by equilibrium dialysis based LC-MS analysis
[22] = Metabolic stability in dog hepatocytes assessed as hepatic extraction ratio at 2 uM measured up to 120 mins by LC-MS/MS analysis
in vitro [23] = details: rat, hepatocytes
[24] = Inhibition of immunosuppressive activity in PGE2-induced human T cells assessed as increase in IL2 production preincubated with PGE2 for 15 mins followed by compound administration for 60 mins and measured after 48 hrs of anti-human CD28 antibody by ELISA; details: T-cell
[25] = Protein binding in human plasma assessed as unbound fraction at 5 uM incubated for 5 hrs by equilibrium dialysis based LC-MS analysis
[26] = Plasma protein binding in cynomolgus monkey at 5 uM incubated for 5 hrs by equilibrium dialysis based LC-MS analysis
[27] = Inhibition of immunosuppressive activity in PGE2-induced human T cells assessed as increase in cell proliferation preincubated with PGE2 for 15 mins followed by compound administration for 60 mins and measured after 72 hrs of anti-human CD28 antibody by flow cytometric analysis
in vitro [28] = details: dog, hepatocytes
in vivo [29] = details: male, CD-1(ICR), mouse, iv, 1 mg/kg; remark: listed apart in the source
Description: Half-life in male CD-1(ICR) mouse at 1 mg/kg, iv measured after 1440 mins by LC-MS/MS analysis

[30] = Protein binding in Sprague-Dawley rat plasma assessed as unbound fraction at 5 uM incubated for 5 hrs by equilibrium dialysis based LC-MS analysis
[31] = rat, hepatocytes, 2 h, 2 µM
in vivo [32] = details: male, CD-1(ICR), mouse, iv, 1 mg/kg; remark: listed apart in the source
Description: Volume of distribution at steady state in male CD-1(ICR) mouse at 1 mg/kg, iv measured after 1440 mins by LC-MS/MS analysis

in vitro [33] = details: dog, hepatocytes; remark: listed apart in the source
in vivo [34] = details: male, CD-1(ICR), mouse, po, 10 mg/kg; remark: listed apart in the source
Description: AUClast in male CD-1(ICR) mouse at 10 mg/kg, po measured after 1440 mins by LC-MS/MS analysis

in vivo [35] = details: male, CD-1(ICR), mouse, iv, 1 mg/kg; remark: listed apart in the source
Description: Apparent volume of distribution in male CD-1(ICR) mouse at 1 mg/kg, iv measured after 1440 mins by LC-MS/MS analysis

in vitro [36] = details: human, hepatocytes
[37] = mouse, in vivo, iv, 1 mg/kg, 24 h
[38] = rhesus monkey, hepatocytes, 2 h, 2 µM
[39] = Metabolic stability in human hepatocytes assessed as hepatic extraction ratio at 2 uM measured up to 120 mins by LC-MS/MS analysis
in vivo [40] = details: male, CD-1(ICR), mouse, po, 10 mg/kg; remark: listed apart in the source
Description: AUCinfinity in male CD-1(ICR) mouse at 10 mg/kg, po measured after 1440 mins by LC-MS/MS analysis

in vivo [41] = details: male, CD-1(ICR), mouse, iv, 1 mg/kg; remark: listed apart in the source
Description: AUClast in male CD-1(ICR) mouse at 1 mg/kg, iv measured after 1440 mins by LC-MS/MS analysis

[42] = Metabolic stability in rat hepatocytes assessed as hepatic extraction ratio at 2 uM measured up to 120 mins by LC-MS/MS analysis
[43] = mouse, in vivo, po, 10 mg/kg, 24 h
[44] = Plasma protein binding in CD-1 mouse at 5 uM incubated for 5 hrs by equilibrium dialysis based LC-MS analysis
[45] = Protein binding in Beagle dog plasma assessed as unbound fraction at 5 uM incubated for 5 hrs by equilibrium dialysis based LC-MS analysis
[46] = Plasma protein binding in human at 5 uM incubated for 5 hrs by equilibrium dialysis based LC-MS analysis
[47] = Apparent permeability across basolateral to apical side in human Caco-2 cells assessed as drug recovery at 2 uM incubated for 2 hrs by LC-MS/MS analysis
in vivo [48] = details: male, CD-1(ICR), mouse, iv, 1 mg/kg; remark: listed apart in the source
Description: AUCinfinity in male CD-1(ICR) mouse at 1 mg/kg, iv measured after 1440 mins by LC-MS/MS analysis

in vivo [49] = details: male, CD-1(ICR), mouse, po, 10 mg/kg; remark: listed apart in the source
[50] = human, hepatocytes, 2 h, 2 µM
in vivo [51] = details: male, CD-1(ICR), mouse, po, 10 mg/kg; remark: listed apart in the source
Description: Half-life in male CD-1(ICR) mouse at 10 mg/kg, po measured after 1440 mins by LC-MS/MS analysis

[52] = Inhibition of immunosuppressive activity in PGE2-induced human T cells assessed as increase in IFNgamma production preincubated with PGE2 for 15 mins followed by compound administration for 60 mins and measured after 48 hrs of anti-human CD28 antibody by ELISA; details: T-cell

Sequence of E3 ubiquitin-protein ligase CBL-B (Q13191 whole entry): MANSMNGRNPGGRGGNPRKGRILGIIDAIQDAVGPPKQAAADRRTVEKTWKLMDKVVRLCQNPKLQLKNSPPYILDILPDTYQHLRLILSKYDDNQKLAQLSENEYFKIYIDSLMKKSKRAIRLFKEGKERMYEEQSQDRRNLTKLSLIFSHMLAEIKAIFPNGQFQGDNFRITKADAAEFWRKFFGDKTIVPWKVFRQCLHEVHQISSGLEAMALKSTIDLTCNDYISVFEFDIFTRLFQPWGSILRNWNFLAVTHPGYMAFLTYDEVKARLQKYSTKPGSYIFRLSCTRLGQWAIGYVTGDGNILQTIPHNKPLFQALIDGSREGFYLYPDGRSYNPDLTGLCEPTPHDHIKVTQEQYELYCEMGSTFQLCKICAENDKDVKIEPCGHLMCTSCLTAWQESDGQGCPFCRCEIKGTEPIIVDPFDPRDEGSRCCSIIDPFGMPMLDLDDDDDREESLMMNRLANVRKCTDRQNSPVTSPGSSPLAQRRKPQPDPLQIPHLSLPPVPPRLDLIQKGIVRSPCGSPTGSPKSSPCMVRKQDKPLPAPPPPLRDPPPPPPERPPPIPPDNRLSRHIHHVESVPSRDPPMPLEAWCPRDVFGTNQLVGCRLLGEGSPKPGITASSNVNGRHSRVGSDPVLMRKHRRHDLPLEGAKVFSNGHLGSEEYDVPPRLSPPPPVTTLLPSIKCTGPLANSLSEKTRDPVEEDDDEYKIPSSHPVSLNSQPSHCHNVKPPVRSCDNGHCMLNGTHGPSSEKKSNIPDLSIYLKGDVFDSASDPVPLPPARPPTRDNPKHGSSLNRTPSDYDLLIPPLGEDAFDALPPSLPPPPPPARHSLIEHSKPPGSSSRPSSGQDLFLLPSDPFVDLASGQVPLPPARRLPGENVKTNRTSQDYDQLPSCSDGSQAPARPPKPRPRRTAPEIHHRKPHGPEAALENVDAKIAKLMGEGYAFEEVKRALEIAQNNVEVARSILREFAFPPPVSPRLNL

## C[C@H]1CCCN(Cc2cc3c(C(F)(F)F)cn(-c4cccc(C5(Cc6nncn6C)CC(F)(F)C5)c4)c(=O)c3[nH]2)C1
[1]
  Ki: 0.74 nM

## Cn1cnnc1C1(c2cccc(-n3cc(C(F)(F)F)c4cc(CNC5(C)CCC5)[nH]c4c3=O)c2)CCC1
[1]
  Ki: 1.13 nM

## Cn1cnnc1C1(c2cccc(-n3cc(C(F)(F)F)c4cc(CN5CCC[C@@H]6C[C@@H]65)[nH]c4c3=O)c2)CCC1
[1]
  Ki: 4.19 nM

## C[C@H]1CCCN(Cc2cc3c(C(F)(F)F)cn(-c4cccc(C5(c6nncn6C)CC6(CC6)C5)c4)c(=O)c3[nH]2)C1
[1]
  Ki: 0.8 nM

## CO[C@H]1C[C@@](c2cccc(-n3cc(C(F)(F)F)c4cc(CNC5(C)CCC5)[nH]c4c3=O)c2)(c2nncn2C)C1
[1]
  Ki: 1.4 nM

## CO[C@H]1C[C@@](c2cccc(-n3cc(C(F)(F)F)c4cc(CN5CC6CCC(C6)C5)[nH]c4c3=O)c2)(c2nncn2C)C1
[1]
  Ki: 0.82 nM

## C[C@H]1CCCN(Cc2cc3c(C4CC4)cn(-c4cccc([C@H](c5nncn5C)C5CCC5)c4)c(=O)c3[nH]2)C1
[1]
  Ki: 1.4 nM

## C[C@H]1CCCN(Cc2cc3c(C(F)(F)F)cn(-c4cccc([C@]5(c6nncn6C)C[C@H](OC(F)(F)F)C5)c4)c(=O)c3[nH]2)C1
[1]
  Ki: 1.54 nM

## CO[C@H]1C[C@](c2cccc(-n3cc(C(F)(F)F)c4cc(CN5CCCC6(CC6)C5)[nH]c4c3=O)c2)(c2nncn2C)C1
[1]
  Ki: 9.3 nM

## Cn1cnnc1[C@]1(c2cccc(-n3cc(C(F)(F)F)c4cc(CN5CC6CCC(C6)C5)[nH]c4c3=O)c2)C[C@H](C)C1
[1]
  Ki: 1.74 nM

## C[C@H]1CCCN(Cc2cc3c(C4CC4)cn(-c4cccc(C5(C(F)c6nncn6C)CC(F)(F)C5)c4)c(=O)c3[nH]2)C1 (stereo partly drawn)
[1]
  Ki: 2.34 nM

## C[C@H]1CCCN(Cc2cc3c(C4CC4)cn(-c4cccc(C5(c6nncn6C)CC6(CC6)C5)c4)c(=O)c3[nH]2)C1
[1]
  Ki: 1.58 nM

## C[C@H]1CCCN(Cc2cc3c(c(C(F)(F)F)c2)CN(c2cccc([C@]4(c5nncn5C)C[C@@H](C)C4)c2)C3=O)C1
[2]
  Papp B→A at 2 h, 2 µM: 35.8 ×10⁻⁶ cm/s
[3]
  hepatic extraction ratio at 2 h, 2 µM: 0.9
[4]
  fraction unbound at 5 h, 5 µM: 0.078
[5]
  fraction unbound at 5 h, 5 µM: 0.044
[6]
  Activity: Non-toxic
In vitro [7]
  half-life at 2 h, 2 µM: 9.3 min
In vitro [8]
  efflux ratio at 2 h, 2 µM: 18
[9]
  CLH: 79.8 mL/min/kg
In vivo [10]
  clearance at 24 h: 59.7 mL/min/kg
[11]
  recovery at 2 h, 2 µM: 101%
In vivo [12]
  MRT inf at 24 h: 26.4 min
In vitro [13]
  half-life at 2 h, 2 µM: 10.4 min
[14]
  Papp A→B at 2 h, 2 µM: 1.98 ×10⁻⁶ cm/s
[15]
  fraction unbound at 5 h, 5 µM: 0.0736
In vivo [16]
  MRT inf at 24 h: 1.72 h
In vivo [17]
  C0 at 24 h: 572 ng/mL
[18]
  hepatic extraction ratio at 2 h, 2 µM: 0.9
In vivo [19]
  bioavailability at 24 h: 24.6%
In vivo [20]
  Tmax at 24 h: 19.8 min
[21]
  fraction unbound at 5 h, 5 µM: 0.0434
[22]
  hepatic extraction ratio at 2 h, 2 µM: 0.9
In vitro [23]
  half-life at 2 h, 2 µM: 39.3 min
[24]
  EC50: 894 nM
[25]
  fraction unbound at 5 h, 5 µM: 0.0522
[26]
  fraction unbound at 5 h, 5 µM: 0.044
[27]
  EC50: 26.8 nM
In vitro [28]
  CLint scaled at 2 h, 2 µM: 50.8 mL/min/kg
In vivo [29]
  half-life at 24 h: 18.6 min
[30]
  fraction unbound at 5 h, 5 µM: 0.0736
[31]
  CLH: 25.2 mL/min/kg
In vivo [32]
  Vd at 24 h: 1.55 L/kg
In vitro [33]
  half-life at 2 h, 2 µM: 5.2 min
In vivo [34]
  AUC(0-t) at 24 h: 661 ng·h/mL
In vivo [35]
  Vd at 24 h: 1.62 L/kg
In vitro [36]
  half-life at 2 h, 2 µM: 46 min
[37]
  %AUCextra: 1.18%
[38]
  CLH: 37.5 mL/min/kg
[39]
  hepatic extraction ratio at 2 h, 2 µM: 0.7
In vivo [40]
  AUC(0-inf) at 24 h: 690 ng·h/mL
In vivo [41]
  AUC(0-t) at 24 h: 277 ng·h/mL
[42]
  hepatic extraction ratio at 2 h, 2 µM: 0.8
[43]
  %AUCextra: 4.76%
[44]
  fraction unbound at 5 h, 5 µM: 0.0434
[45]
  fraction unbound at 5 h, 5 µM: 0.078
[46]
  fraction unbound at 5 h, 5 µM: 0.0522
[47]
  recovery at 2 h, 2 µM: 81.3%
In vivo [48]
  AUC(0-inf) at 24 h: 281 ng·h/mL
In vivo [49]
  Cmax at 24 h: 629 ng/mL
[1]
  Ki: 1.84 nM
[50]
  CLH: 14.3 mL/min/kg
In vivo [51]
  half-life at 24 h: 161 min
[52]
  EC50: 892 nM

## CCN(CC)Cc1cc2c(C(F)(F)F)cn(-c3cccc([C@]4(c5nncn5C)C[C@@H](C)C4)c3)c(=O)c2[nH]1
[1]
  Ki: 0.97 nM

## CCN(Cc1cc2c(C(F)(F)F)cn(-c3cccc([C@]4(c5nncn5C)C[C@@H](C)C4)c3)c(=O)c2[nH]1)CC(C)C
[1]
  Ki: 1.57 nM

## CO[C@H]1C[C@@](c2cccc(-n3cc(C(F)(F)F)c4cc(CN5CCC[C@H](C)C5)[nH]c4c3=O)c2)(c2nncn2C)C1
[1]
  Ki: 1.39 nM

## Cn1cnnc1[C@]1(c2cccc(-n3cc(C(F)(F)F)c4cc(CN5CCCC6(CC6)C5)[nH]c4c3=O)c2)C[C@H](C)C1
[1]
  Ki: 1.32 nM

## C[C@H]1CCCN(Cc2cc3c(C(F)(F)F)cn(-c4cccc(C5(c6nncn6C)COC5)c4)c(=O)c3[nH]2)C1
[1]
  Ki: 5.29 nM

## CO[C@H]1C[C@](c2cccc(-n3cc(C(F)(F)F)c4cc(CN5CCC[C@H](C)C5)[nH]c4c3=O)c2)(c2nncn2C)C1
[1]
  Ki: 1.68 nM

## C[C@H]1CCCN(Cc2cc3c(C(F)(F)F)cn(-c4cccc([C@H](c5nncn5C)C5CCC5)c4)c(=O)c3[nH]2)C1
[1]
  Ki: 0.83 nM

## CCN(Cc1cc2c(C(F)(F)F)cn(-c3cccc(C4(c5nncn5C)CCC4)c3)c(=O)c2[nH]1)CC(C)C
[1]
  Ki: 2.87 nM

## C[C@H]1CCCN(Cc2cc3c(C(F)(F)F)cn(-c4cccc(C5(Cc6nncn6C)COC5)c4)c(=O)c3[nH]2)C1
[1]
  Ki: 1.98 nM

## CO[C@H]1C[C@@](c2cccc(-n3cc(C(F)(F)F)c4cc(CN5CCCC6(CC6)C5)[nH]c4c3=O)c2)(c2nncn2C)C1
[1]
  Ki: 2.29 nM

## CO[C@H]1C[C@](c2cccc(-n3cc(C(F)(F)F)c4cc(CNC5(C)CCC5)[nH]c4c3=O)c2)(c2nncn2C)C1
[1]
  Ki: 2.34 nM

## Cc1cn(-c2cccc(C3(Cc4nncn4C)COC3)c2)c(=O)c2[nH]c(CN3CCC[C@H](C)C3)cc12
[1]
  Ki: 2.36 nM

## C[C@H]1CCCN(Cc2cc3c(C4CC4)cn(-c4cccc(C5(Cc6nncn6C)CC(F)(F)C5)c4)c(=O)c3[nH]2)C1
[1]
  Ki: 1.68 nM

## C[C@H]1CCCN(Cc2cc3c(C(F)(F)F)cn(-c4cccc([C@]5(c6nncn6C)C[C@H](F)C5)c4)c(=O)c3[nH]2)C1
[1]
  Ki: 1.41 nM
